Reference: patent EP2871962B1, “WOOD PROTECTION AGAINST MICROORGANISMS BY LACCASE-CATALYSED IODINATION” (EMPA Eidgenössische Materialprüfungs- und Forschungsanstalt, priority 2012, dated 2013)
Values joined by “and” are separate entries in the source; they are usually repeats but may differ in a detail not shown here. Identical values can stand only once.

Tests used:
E. coli = assay: Biotests 1: stamping test of treated, leached wood on agar; type: cell-based, Escherichia coli (ATCC 11229); conditions: wood batch 1 exposed to leaching; 18h contact; mean of grades 0-4 ±SE, n = 3; Mediator = ABTS (10 µM)
Protocol: (§1) Wood specimens (batch 1: 10 x 10 x 5 mm, length x width x height used in the biotests 1 and batch 2: 20 x 15 x 10 mm used in the biotests 2), free of defects, were extracted longitudinally from boards of Norway spruce trees grown in Switzerland, in order to minimize the influence of natural variability. All specimens were conditioned at 23C°(±1°C) and 50% (±5%) relative humidity (RH) until they reached an equilibrium moisture content of approximately 8-10%. Prior to the wood treatment the specimens were sterilized by autoclaving for 20min at 121°C(±1°C). […]
(§2) The evaluation of the antimicrobial activity against the bacteria E. coli and S. aureus and the yeast S. cerevisiae of the iodinated and polymerised wood was performed in biotests 1. […] Growth on agar plates was visually determined after incubation for 20-28h at the optimal temperature, giving the following growth values: 0 = no growth; 1 = weak growth; 2 = intermediate growth; 3 = strong growth and 4 = stamping area completely overgrown.

S. aureus = assay: as above; type: cell-based, Staphylococcus aureus (ATCC 6583); conditions: wood batch 1 exposed to leaching; 18h contact; mean of grades 0-4 ±SE, n = 3; Mediator = ABTS (10 µM)
Protocol: as §1, §2

[1] = test system: A. pullulans, C. picea, C. herbarum and D. pinicola; assay: Biotests 2: blue stain test of treated wood (EN 152-2, modified); type: cell-based; conditions: 6 weeks of incubation, mean of stain categories 0-5 ±SE, n = 6, Mediator = ACS (50 µM); for Blue stain discoloration, Leached: wood batch 2, leached (EN 84)
Protocol: (§3) Wood specimens (batch 1: 10 x 10 x 5 mm, length x width x height used in the biotests 1 and batch 2: 20 x 15 x 10 mm used in the biotests 2), free of defects, were extracted longitudinally from boards of Norway spruce trees grown in Switzerland, in order to minimize the influence of natural variability. All specimens were conditioned at 23C°(±1°C) and 50% (±5%) relative humidity (RH) until they reached an equilibrium moisture content of approximately 8-10%. Prior to the wood treatment the specimens were sterilized by autoclaving for 20min at 121°C(±1°C).
The enzymatic wood iodination and polymerisation were carried out by dipping three wood specimens of batch 1 in 30ml or 12 wood specimens of batch 2 in 200ml reaction solution (pH 4-6) containing one of the phenolic compounds (4mM), or potassium iodide (1 or 50mM) in the presence of laccase ([…]) for 18h at room temperature. Furthermore, to test the suitability of HBA (5mM) as mediator some additional experiments were performed. The chemical preservative VP 7/ 260a containing IPBC and propiconazole as active agents was used as a benchmark with a final concentration of 5% (v/v). The wood specimens were treated and used in the biological tests, with the following modifications: • Control = Wood treated with buffer • L = Wood treated with laccase alone • L-M = Wood treated with laccase and mediator • Iso = Wood treated with isoeugenol • Iso-L = Wood treated with isoeugenol and laccase • Iso-L-M = Wood treated with isoeugenol, laccase and mediator • Thy = Wood treated with thymol • Thy-L = Wood treated with thymol and laccase • Thy-L-M = Wood treated with thymol and laccase and mediator • Ix = Wood treated with 1 or 50mM iodide (x = concentration of iodide) • Ix-L = Wood treated with 1 or 50mM iodide and laccase • Ix-L-M = Wood treated with 1 or 50mM iodide, laccase and mediator • VP7 = Wood treated with VP 7/ 260a (IPBC and propiconazole)
After the reaction all wood specimens of batch 1 had undergone a leaching procedure comprising five cycles of incubation in ddH2O (liquid volume min. 10 times the specimen volume, 100rpm, room temperature, 24h) and water exchange. Half of the wood specimens of batch 2 were exposed to leaching for two weeks including nine steps of water changing according to EN 84 (29), the other half was used without leaching in biotests.
The resistance of the treated wood against blue stain and wood decay fungi was determined in biotests 2 according to the European standards EN 152-2 (30) and EN 113 (31) with slight modifications. The EN 152 is a classical test for blue staining, originally intended to determine the effectiveness of a preservative treatment against blue stain in service. The treated wood samples were dipped into a spore suspension of A. pullulans, C. picea, C. herbarum and D. pinicola (cfu: > 10^5) and placed horizontally in a Kolle flask containing vermiculite (18g) which was inoculated additionally with 40ml of the spore suspension. The incubated specimens were stored in an incubation room at 22°C and 70% RH (6 weeks). After incubation the surface was evaluated by classifying the percentage of blue-stain discolouration from 0 to 5 according to Thwaites et al. (32) (Table 1). Table 1: Determination of the blue stain discoloration

S. cerevisiae = assay: Biotests 1: stamping test of treated, leached wood on agar; type: cell-based, Saccharomyces cerevisiae A.C. van Wijk (DSM 70449); conditions: wood batch 1 exposed to leaching; 18h contact; mean of grades 0-4 ±SE, n = 3; Mediator = ABTS (10 µM)
Protocol: as §1, §2

T. versicolor [2] = assay: Growth inhibition on supplemented malt extract agar plates (Example 1); type: cell-based, Trametes versicolor; conditions: 2% MEA; phenolic derivatives 4mM, VP 7/ 260a 5% (v/v); without wood; ±SE, n = 3
Protocol: (§4) In addition to the mentioned biotests 2 the antimicrobial activity of the reaction derivatives without wood was evaluated on agar plates (5), excluding the laccase-catalysed iodine solution. It was assumed that the iodine molecules would react with starch from malt to form polyiodide chains, which would prevent the antimicrobial effect (33). The laccase catalysis of the phenols was performed under shaking for 18h at room temperature as described above and the phenolic derivatives were added to 2% MEA after autoclaving to a final concentration of 4mM. The fungicide VP 7/ 260a were added to a concentration of 5% (v/v). The supplemented Petri dishes were inoculated in the centre with a mycelium agar disc (5mm diameter) taken from the sub-margin of 14 day old cultures of the ascomycetes A. pullulans and D. pinicola and the basidiomycetes O. placenta and T. versicolor. The fungal growth was estimated by measuring the colony diameter and the growth inhibition was expressed as % of reference grown on non-supplemented malt agar.

T. versicolor [3] = assay: Biotests 2: mini-wood block decay test (comparable with EN 113), mass loss; type: cell-based, Trametes versicolor; conditions: wood batch 2, non-leached and leached, 12 weeks incubation; numbers only in Figure 2
Protocol: as §3
(§5) The enzymatic wood iodination and polymerisation were carried out by dipping three wood specimens of batch 1 in 30ml or 12 wood specimens of batch 2 in 200ml reaction solution (pH 4-6) containing one of the phenolic compounds (4mM), or potassium iodide (1 or 50mM) in the presence of laccase (10U ml^-1) and either 10µM ABTS for batch 1 or 100µM ACS for batch 2 under shaking (100rpm) for 18h at room temperature. […]
(§6) The treated wood was aseptically added to fully colonised Petri dishes (135mm diameter, 2% malt extract agar (MEA)) by O. placenta and T. versicolor respectively and incubated at 22C° and 70% RH. The ability of the wood-decay fungi to degrade the wood was determined gravimetrically after incubation periods of 6 and 12 weeks and expressed as mass loss (%) according to EN 113 (31): Mass loss(%) = (m0 −m1)/(m0)⋅100 [formula] […]

A. alternata = assay: Growth inhibition on supplemented malt extract agar plates (Example 1); type: cell-based; conditions: 2% MEA; phenolic derivatives 4mM, VP 7/ 260a 5% (v/v); without wood; ±SE, n = 3
O. placenta [4] = assay: as above; type: cell-based, Oligoporus placenta; conditions: 2% MEA; phenolic derivatives 4mM, VP 7/ 260a 5% (v/v); without wood; ±SE, n = 3
Protocol: as §4

D. pinicola = assay: as above; type: cell-based, Discula pinicola; conditions: 2% MEA; phenolic derivatives 4mM, VP 7/ 260a 5% (v/v); without wood; ±SE, n = 3
Protocol: as §4

O. placenta [5] = assay: Biotests 2: mini-wood block decay test (comparable with EN 113), mass loss; type: cell-based, Oligoporus placenta; conditions: wood batch 2, non-leached and leached, 12 weeks incubation; numbers only in Figure 2
Protocol: as §3, §5, §6

SMILES: [I-].[K+] [I50, potassium iodide]
- Growth values after stamping, E. coli (E. coli): 4.0 ±0.0
- Growth values after stamping, S. aureus (S. aureus): 3.0 ±0.6
- Blue stain discoloration, Leached [1]: 3.3 ±0.3
- Blue stain discoloration, Non-leached ([1]; wood batch 2, non-leached): 0.8 ±0.4
- Growth values after stamping, S. cerevisiae (S. cerevisiae): 2.7 ±0.3

SMILES: CC=Cc1ccc(O)c(OC)c1 [Iso, isoeugenol]
- Growth values after stamping, E. coli (E. coli): 4.0 and 4.0 ±0.0
- Blue stain discoloration, Leached [1]: 3.4 and 3.4 ±0.5
- Growth inhibition [%] on agar plate compared to control, T. versicolor (T. versicolor [2]): 100 ±0.0%
- mass loss of wood caused by T. versicolor (result in words) (T. versicolor [3]): minor effect
- Growth inhibition [%] on agar plate compared to control, A. alternata (A. alternata): 100 ±0.0%
- Growth inhibition [%] on agar plate compared to control, O. placenta (O. placenta [4]): 100 ±0.0%
- Growth inhibition [%] on agar plate compared to control, D. pinicola (D. pinicola): 100 ±0.0%
- mass loss of wood caused by O. placenta (result in words) (O. placenta [5]): minor effect
